Measured values from ChEMBL document CHEMBL1201862, “PubChem BioAssay data set” (2004).
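Briefly, cells in 96-well plates were exposed to five compound concentrations for 48 h, and endpoints were estimated by linear interpolation. GI50: concentration for 50% inhibition of growth.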 Active and inactive are the calls of the source. Cut-off read from the data, not from the text of the source: active = GI50 up to about 1.1 µM and inactive = higher.

Key:
Assay in all cases: NCI-60 cell line screen, 48 h
ACHN = test system: ACHN
CAKI-1 = test system: CAKI-1
COLO 205 = test system: COLO 205
DU-145 = test system: DU-145
HCT-116 = test system: HCT-116
HCT-15 = test system: HCT-15
HOP-62 = test system: HOP-62
Hs-578T = test system: Hs-578T
IGROV-1 = test system: IGROV-1
LOX IMVI = test system: LOX IMVI
MDA-N = test system: MDA-N
Malme-3M = test system: Malme-3M
SK-MEL-5 = test system: SK-MEL-5
SK-OV-3 = test system: SK-OV-3
SN12C = test system: SN12C
SR = test system: SR
UACC-257 = test system: UACC-257
A498 = test system: A498
RPMI-8226 = test system: RPMI-8226

Row | SMILES | GI50 (ACHN) | GI50 (CAKI-1) | GI50 (COLO 205) | GI50 (DU-145) | GI50 (HCT-116) | GI50 (HCT-15) [µM] | GI50 (HOP-62) | GI50 (Hs-578T) | GI50 (IGROV-1) | GI50 (LOX IMVI) | GI50 (MDA-N) | GI50 (Malme-3M) | GI50 (SK-MEL-5) | GI50 (SK-OV-3) | GI50 (SN12C) | GI50 (SR) | GI50 (UACC-257) | GI50 (A498) | GI50 (RPMI-8226)
1 | CCOC(=O)C1(C#N)CC1 | > 100 µM (inactive) | > 100 µM (inactive) | > 100 µM (inactive) | > 100 µM (inactive) | > 100 µM (inactive) | > 100 | > 100 µM (inactive) | > 100 µM (inactive) | > 100 µM (inactive) | > 100 µM (inactive) | > 100 µM (inactive) | > 100 µM (inactive) | > 100 µM (inactive) | > 100 µM (inactive) | > 100 µM (inactive) | > 100 µM (inactive) | > 100 µM (inactive) |  | 
2 | O=C(N[C@H](CO)[C@H](O)c1ccc([N+](=O)[O-])cc1)C(Cl)Cl [CHLORAMPHENICOL] | > 100 µM (inactive) | > 100 µM (inactive) | > 100 µM (inactive) | > 100 µM (inactive) | > 100 µM (inactive) | > 100 | > 100 µM (inactive) |  | > 100 µM (inactive) | > 100 µM (inactive) | > 100 µM (inactive) | > 100 µM (inactive) | > 100 µM (inactive) | > 100 µM (inactive) | > 100 µM (inactive) | > 100 µM (inactive) | > 100 µM (inactive) | > 100 µM (inactive) | > 100 µM (inactive)
3 | Cc1csc(N/C=C2\C(=O)Oc3ccccc3C2=O)n1 | 9.02 µM (inactive) | 19.8 µM (inactive) | 35 µM (inactive) | 29 µM (inactive) | 28.4 µM (inactive) | 22.5 |  | 20.1 µM (inactive) | 24.7 µM (inactive) | 22.1 µM (inactive) | 33.2 µM (inactive) | 20.5 µM (inactive) | 23.9 µM (inactive) | 7.05 µM (inactive) |  |  | 45.2 µM (inactive) |  | 
4 | Cc1c(Cl)c(C)c(Cl)c(O)c1Cl | 22.8 µM (inactive) | 21.4 µM (inactive) | 60 µM (inactive) | 37 µM (inactive) | 18.2 µM (inactive) | 21.8 | 31.9 µM (inactive) | 19.9 µM (inactive) | 44.3 µM (inactive) | 26.2 µM (inactive) | 24.6 µM (inactive) | 15.2 µM (inactive) | 15.3 µM (inactive) | 26.5 µM (inactive) | 24.2 µM (inactive) |  | 22.1 µM (inactive) | 19 µM (inactive) | 17.3 µM (inactive)
5 | COC(=O)CNC(=O)C(CSC(=O)OCC1c2ccccc2-c2ccccc21)NC(=O)CCC(NC(=O)OCC1c2ccccc2-c2ccccc21)C(=O)OC (stereo not given) | 55.1 µM (inactive) | 7.5 µM (inactive) | 29.4 µM (inactive) | > 100 µM (inactive) | 17.5 µM (inactive) | 28 | 21.1 µM (inactive) | 28.4 µM (inactive) | 17.8 µM (inactive) | 3.27 µM (inactive) | 18.8 µM (inactive) | 25.7 µM (inactive) | 78.7 µM (inactive) | 30.3 µM (inactive) | > 100 µM (inactive) | 12.6 µM (inactive) | 32.5 µM (inactive) |  | 23.1 µM (inactive)
6 | OCC1OC(c2cccc3cc(O)c(O)cc23)CC1O (stereo not given) | > 100 µM (inactive) |  |  | > 100 µM (inactive) | > 100 µM (inactive) | > 100 | > 100 µM (inactive) | > 100 µM (inactive) | 64 µM (inactive) | > 100 µM (inactive) | > 100 µM (inactive) |  |  | > 100 µM (inactive) | > 100 µM (inactive) |  | > 100 µM (inactive) | > 100 µM (inactive) | > 100 µM (inactive)
7 | CC1(C)COC(c2ccccc2-c2ccccc2)=N1 | > 100 µM (inactive) | 81.3 µM (inactive) | > 100 µM (inactive) | > 100 µM (inactive) | > 100 µM (inactive) | > 100 | > 100 µM (inactive) |  | 67.8 µM (inactive) |  | > 100 µM (inactive) | > 100 µM (inactive) |  | > 100 µM (inactive) | > 100 µM (inactive) | > 100 µM (inactive) | 66.1 µM (inactive) | > 100 µM (inactive) | > 100 µM (inactive)
8 | Oc1cc(-c2ccccc2)nc2ncccc12 | 0.446 µM (active) | 0.0792 µM (active) | 0.0855 µM (active) | 0.298 µM (active) | 0.0719 µM (active) | 0.0227 | 1.15 µM (inactive) | 0.16 µM (active) | 0.2 µM (active) | 0.0552 µM (active) | 0.0129 µM (active) | 0.091 µM (active) | 0.0778 µM (active) | 0.126 µM (active) | 0.268 µM (active) |  | 0.203 µM (active) | > 100 µM (inactive) | 0.171 µM (active)
9 | N/C(=N\n1c(=S)[nH]c2ccccc2c1=O)Nn1c(=S)[nH]c2ccccc2c1=O | 46.7 µM (inactive) | 13.2 µM (inactive) | 28.8 µM (inactive) | > 100 µM (inactive) | 16.8 µM (inactive) | 22.6 | 36.4 µM (inactive) |  | 28.9 µM (inactive) | 18.8 µM (inactive) | 24.7 µM (inactive) | 20.5 µM (inactive) | 44.4 µM (inactive) | > 100 µM (inactive) |  | 20.3 µM (inactive) | > 100 µM (inactive) | > 100 µM (inactive) | 22.4 µM (inactive)
